Where “and” joins values, the source holds several entries; their conditions need not be identical. Equal entries are not always repeated.
Assays:
[1] = target: T1, human cytochrome P450 (CYP) 3A4 (Homo sapiens, UniProt P08684); assay: Cytochrome P450 Inhibition Assay, CYP 3A4; format: in vitro ADME; settings: test compound 0.1-10 μM, substrate BFC
T1 construct: made in house; host or cells: yeast (microsomal fraction)
Description: Cytochrome P450 Inhibition Assay
The inhibitory potential (IC50) of test compounds against 5 human cytochrome P450 (CYP) isoforms (1A2, 2C9, 2C19, 3A4 and 2D6) was assessed using an automated fluorescent end point in vitro assay modified from Crespi (Crespi and Stresser, J Pharmacol Toxicol Methods 2000, 44: 325-331). Microsomal subcellular fractions prepared from Yeast cell lines expressing each human CYP isoform were used as an enzyme source in this assay. The activity of the 5 major human CYPs was determined from the biotransformation of a number of coumarin substrates to fluorescent metabolites, in the presence of NADPH. […] Stock solutions of each CYP, with its respective substrate, were prepared in phosphate buffer pH 7.4 (see Table 1) and 178 μl was added to the well of a black solid, flat bottom, 300 μl 96 well microtitre plate (Corning Costar). […] The appropriate solvent controls and substrate blanks were included in each experiment to assess control activity and identify any inherent fluorescence due to the test compounds. […] The plates were read on a fluorimeter (Spectrafluor Plus) at the appropriate excitation and emission wavelengths (listed in Table 2) and the percent activity, corrected for control, was plotted against the test compound concentration.

FGFR1 IIIc = target: T2, FGFR1 IIIc (Homo sapiens, UniProt P11362); assay: Cell FGFR1 (ECHO): inhibition of transiently expressed FGFR1 IIIc phosphorylation in Cos-1 cells; format: cell-based; settings: Cos-1 cells transiently expressing FGFR1 IIIc, 1 hour incubation; read-out: IC50 (inhibition of phosphorylated FGFR1)
T2 construct: expressed in transfected cells; host or cells: Cos-1
T2 sequence (P11362 22-822): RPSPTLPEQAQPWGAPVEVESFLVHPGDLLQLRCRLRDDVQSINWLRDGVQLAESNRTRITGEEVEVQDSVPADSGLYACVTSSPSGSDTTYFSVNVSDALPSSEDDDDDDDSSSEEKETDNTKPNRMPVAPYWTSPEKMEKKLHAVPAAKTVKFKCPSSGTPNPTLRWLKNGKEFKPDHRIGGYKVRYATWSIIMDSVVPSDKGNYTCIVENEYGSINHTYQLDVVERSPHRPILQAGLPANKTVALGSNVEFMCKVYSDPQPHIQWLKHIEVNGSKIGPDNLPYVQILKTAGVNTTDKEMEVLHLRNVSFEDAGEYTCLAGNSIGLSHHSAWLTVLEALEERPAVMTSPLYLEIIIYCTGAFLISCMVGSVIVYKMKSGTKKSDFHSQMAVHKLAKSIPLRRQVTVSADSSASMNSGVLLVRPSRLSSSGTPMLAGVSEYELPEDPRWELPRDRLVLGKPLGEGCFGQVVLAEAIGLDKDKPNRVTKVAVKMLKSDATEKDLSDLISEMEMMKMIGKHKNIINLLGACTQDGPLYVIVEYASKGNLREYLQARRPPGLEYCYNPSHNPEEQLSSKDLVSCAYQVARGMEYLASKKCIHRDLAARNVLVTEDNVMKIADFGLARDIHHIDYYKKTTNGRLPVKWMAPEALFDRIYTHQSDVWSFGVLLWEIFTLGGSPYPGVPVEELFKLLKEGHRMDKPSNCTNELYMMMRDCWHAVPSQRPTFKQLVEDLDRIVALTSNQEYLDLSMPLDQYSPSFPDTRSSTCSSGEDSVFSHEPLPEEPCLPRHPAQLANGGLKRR
Text: Cell FGFR1 (ECHO)—Cell Based Inhibition of Transiently Expressed FGFR1 IIIc Phosphorylation via use of ECHO Technology (Measured using Phospho-Specific Primary and Fluorescent Secondary Antibodies).
This assay is designed to detect inhibitors of transiently expressed FGFR1 phosphorylation by antibody staining of fixed cells detected using ArrayScan technology.
Cos-1 cells were routinely passaged in DMEM (Gibco BRL, 41966) plus 3% foetal calf serum (FCS), 1% L-glutamine (Gibco BRL, 25030) to a confluence of 80%. To undertake the assay, Cos-1 cells were harvested at 90-95% confluence for cell transfection. For each 96-well plate, 24 μl Lipofectamine 2000 was added to 809 ul OptiMEM and incubated at room temperature for 5 minutes. For each 96 well plate, 20 ug 3′ FLAG tagged FGFR1/pcDNA3.1 (In-house clone15, MSD 4793) was diluted with OptiMEM to a total volume of 833 μl. Equal volumes of DNA and Lipofectamine 2000 were combined (DNA: Lipid=1:1.2 ratio) and incubated at room temperature for 20 minutes.
The harvested Cos-1 cells are counted using a coulter counter and diluted further with 1% FCS/DMEM to 2.5×10^5 cells/ml. For each 96-well, 8.33 ml cells were required. […]
Media was removed from the wells using vacuum aspiration; cells were fixed by adding 50 μl of 100% methanol to each well and incubated at room temperature for 20 minutes. […] The plates were read on an Arrayscan (Cellomics). […]

T1 sequence (P08684 whole entry): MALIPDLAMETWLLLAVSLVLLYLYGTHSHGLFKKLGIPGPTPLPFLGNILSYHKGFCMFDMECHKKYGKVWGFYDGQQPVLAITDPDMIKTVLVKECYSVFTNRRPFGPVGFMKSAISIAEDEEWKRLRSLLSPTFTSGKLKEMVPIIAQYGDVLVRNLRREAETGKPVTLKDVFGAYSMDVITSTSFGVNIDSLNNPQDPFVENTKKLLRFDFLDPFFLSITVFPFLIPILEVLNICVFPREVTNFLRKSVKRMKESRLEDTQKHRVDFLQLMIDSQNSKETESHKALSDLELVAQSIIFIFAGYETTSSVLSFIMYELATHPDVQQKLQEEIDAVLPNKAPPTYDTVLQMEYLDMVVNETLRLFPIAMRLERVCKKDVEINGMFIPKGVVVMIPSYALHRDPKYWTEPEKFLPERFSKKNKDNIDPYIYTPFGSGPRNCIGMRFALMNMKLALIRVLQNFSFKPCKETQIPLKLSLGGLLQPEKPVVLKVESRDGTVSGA

Row | SMILES | IC50 [1] [nM] | IC50 (FGFR1 IIIc)
1 | COc1cc(CCc2cc(NC(=O)c3ccc(N4CCN(C)[C@@H](C)C4)cc3)[nH]n2)cc(OC)c1 [Example 1a, (S)—N-(3-(3,5-Dimethoxyphenethyl)-1H-pyrazol-5-yl)-4-(3,4-dimethylpiperazin-1-yl)benzamide] | 2940 | –
2 | COc1cc(CCc2cc(NC(=O)c3ccc(N4CCN(C)[C@H](C)C4)cc3)[nH]n2)cc(OC)c1 [Example 1b, (R)—N-(3-(3,5-Dimethoxyphenethyl)-1H-pyrazol-5-yl)-4-(3,4-dimethylpiperazin-1-yl)benzamide] | > 10000 | < 10 nM and 1.1 nM and 2.2 nM and 4.8 nM
